Experimental data: patent publication US20110039763A1, “TARGETED ANTIMICROBIAL MOIETIES” (C3 JIAN, INC., priority 2009, published 2011)
Entries after “also recorded” stand apart in the source; their conditions may differ.

What was measured:
microorganisms [1] = assay: Peptide activities: targeting/binding, antimicrobial, growth or phenotype altering (Tables 7, 8); assay type: cell-based; details: peptides having multiple activities
microorganisms [2] = assay: Targeting peptide binding to target microorganisms (Tables 3, 10, 12); details: microorganism(s) the targeting peptide binds; binding in aqueous buffers varied with peptide solubility, preferably 1x PBS
microorganisms [3] = assay: Morphology, biofilm and growth disrupting peptides (Table 5); assay type: cell-based; design: key: A: Peptide aggregates; B: Less hyphal formation; Clumps; Diffuse clumps and small polyps; F: Diffuse growth; H: Thin; I: Growth inhibition; Microcolony formation; Rippled; Small polyps; Thick; W: Halo formation on top, microlonies on bottom
Text: In certain embodiments peptides that induce alterations in phenotype or other biological activities can also be used as antimicrobial effector moieties.

Row | Substance | Activities (microorganisms [1]) | Target(s) (microorganisms [2]) | Organism, effect: S. epidermidis (microorganisms [3]) | Organism, effect: C. jeikeium (microorganisms [3]) | Organism, effect: M. luteus (microorganisms [3]) | Organism, effect: P. aeruginosa (microorganisms [3]; P. aeruginosa) | Organism, effect: B. subtilis (microorganisms [3]) | Organism, effect: E. coli (microorganisms [3]) | Organism, effect: MRSA (microorganisms [3])
1 | PF-192: peptide having multiple activities (VEEDEAPPPHY; Peptide with targeting and/or antimicrobial activity) | G B | S. epidermidis; also recorded: M. luteus; also recorded: P. aeruginosa; also recorded: C. albicans; also recorded: E. faecalis; also recorded: C. jeikeium | S. epidermidis (D) | – | – | – | – | – | –
2 | PF-204: peptide having multiple activities (ALQKQDMNLPSVKNQLVFLKSTG; Peptide with targeting and/or antimicrobial activity) | G B | S. epidermidis; also recorded: P. mirabilis; also recorded: E. coli; also recorded: P. aeruginosa; also recorded: C. albicans; also recorded: C. jejuni | S. epidermidis (C) | C. jeikeium (D) | M. luteus (C) | P. aeruginosa (H) | – | – | –
3 | PF-208: peptide having multiple activities (DAYHCHLVRSPDAHDLSMRIGFV; Peptide with targeting and/or antimicrobial activity) | G B | S. epidermidis and C. albicans and MRSA and S. pneumoniae and E. faecalis and C. jeikeium and C. jejuni | S. epidermidis (D) | C. jeikeium (A) | – | – | – | – | –
4 | PF-212: peptide having multiple activities (NDSKASN; Peptide with targeting and/or antimicrobial activity) | G B | M. luteus; also recorded: P. aeruginosa | – | – | M. luteus (M) | – | – | – | –
5 | PF-215: peptide having multiple activities (ELKITNYNVNTVLYRYYKWGNDLCE; Peptide with targeting and/or antimicrobial activity) | G B | S. epidermidis; also recorded: M. luteus; also recorded: P. aeruginosa; also recorded: A. baumannii | – | – | M. luteus (T) | – | – | – | –
6 | PF-224: peptide having multiple activities (DYFYITLSQKNTF; Peptide with targeting and/or antimicrobial activity) | G B | S. epidermidis; also recorded: P. aeruginosa; also recorded: A. baumannii | – | – | M. luteus (T) | – | – | – | –
7 | PF-233: peptide having multiple activities (DANAMARTTIAIVYILALIALTISYSL; Peptide with targeting and/or antimicrobial activity) | G B | S. epidermidis; also recorded: M. luteus; also recorded: P. aeruginosa; also recorded: A. baumannii | S. epidermidis (C) | – | – | – | – | – | –
8 | PF-234: peptide having multiple activities (RTPYILRS; Peptide with targeting and/or antimicrobial activity) | G B | S. epidermidis; also recorded: M. luteus | – | – | M. luteus (T) | – | – | – | –
9 | PF-235: peptide having multiple activities (GIPFSKPHKRQVNYMKSDVLAYIEQNKMAHTA; Peptide with targeting and/or antimicrobial activity) | G B | S. epidermidis; also recorded: M. luteus | – | – | M. luteus (T) | – | – | – | –
10 | PF-249: peptide having multiple activities (chain 1 INSRYKISF; chain 2 INSRYKISF; Peptide with targeting and/or antimicrobial activity) | G B | S. epidermidis; also recorded: M. luteus | – | – | M. luteus (R) | – | – | – | –
11 | PF-255: peptide having multiple activities (chain 1 DHKINESQHNPFRSDSNKQNVDFF; chain 2 DHKINESQHNPFRSDSNKQNVDFF; Peptide with targeting and/or antimicrobial activity) | G B | P. aeruginosa | – | – | M. luteus (M) | – | – | – | –
12 | PF-271: peptide having multiple activities (chain 1 AAQPQTTSP; chain 2 AAQPQTTSP; Peptide with targeting and/or antimicrobial activity) | G B | S. epidermidis; also recorded: M. luteus; also recorded: P. aeruginosa; also recorded: A. baumannii | – | – | M. luteus (T) | – | – | – | –
13 | PF-273: peptide having multiple activities (chain 1 LVGALLIFVALIYMVLKGNADKN; chain 2 LVGALLIFVALIYMVLKGNADKN; Peptide with targeting and/or antimicrobial activity) | G B | S. epidermidis; also recorded: M. luteus; also recorded: P. aeruginosa; also recorded: A. baumannii | S. epidermidis (C) | – | – | – | – | – | –
14 | PF-276: peptide having multiple activities (chain 1 LDLALSTNSLNLEGFSF; chain 2 LDLALSTNSLNLEGFSF; Peptide with targeting and/or antimicrobial activity) | G B | S. epidermidis | – | – | M. luteus (M) | – | – | – | –
15 | PF-292: peptide having multiple activities (chain 1 SFVSTTVRLIFEESKRYKF; chain 2 SFVSTTVRLIFEESKRYKF; Peptide with targeting and/or antimicrobial activity) | G B | S. epidermidis; also recorded: B. subtilis; also recorded: B. fragilis | S. epidermidis (C) | – | – | – | B. subtilis (C) | – | –
16 | PF-294: peptide having multiple activities (chain 1 DFLVNFLWFKGELNWGKKRYK; chain 2 DFLVNFLWFKGELNWGKKRYK; Peptide with targeting and/or antimicrobial activity) | G B | S. epidermidis; also recorded: C. difficile | S. epidermidis (C) | – | – | – | – | – | –
17 | PF-297: peptide having multiple activities (ISKGIDDIVYVINKILSIGNIFKIIKRK; Peptide with targeting and/or antimicrobial activity) | G B | S. epidermidis; also recorded: B. subtilis; also recorded: B. fragilis | S. epidermidis (C) | – | – | – | B. subtilis (C) | – | –
18 | PF-301: peptide having multiple activities (GIVLIGLKLIPLLANVLN; Peptide with targeting and/or antimicrobial activity) | G B | C. difficile | S. epidermidis (C) | – | – | – | B. subtilis (C) | – | –
19 | PF-306: peptide having multiple activities (GCILPHKKDNYNYIMSKFQDLVKITSKK; Peptide with targeting and/or antimicrobial activity) | G B | C. difficile | – | – | – | – | B. subtilis (C) | – | –
20 | PF-313: peptide having multiple activities (YITSHKNARAIIKKFERDEILEEVITHYLNRK; Peptide with targeting and/or antimicrobial activity) | G B | S. epidermidis; also recorded: C. difficile | S. epidermidis (C) | – | – | – | – | – | –
21 | PF-344: peptide having multiple activities (DERLPEAKAIRNFNGSVMVLGR; Peptide with targeting and/or antimicrobial activity) | G B | B. subtilis; also recorded: C. jejuni | – | – | – | – | – | E. coli (A) | –
22 | PF-350: peptide having multiple activities (LAVILRAIVY; Peptide with targeting and/or antimicrobial activity) | G B | S. epidermidis; also recorded: E. coli; also recorded: E. faecalis; also recorded: C. jeikeium; also recorded: C. jejuni | S. epidermidis (C) | – | – | – | – | E. coli (C) | MRSA (C)
23 | PF-360: peptide having multiple activities (chain 1 MEQKVKVIFVPRSKPDNQLKTFVSAVLFKA; chain 2 MEQKVKVIFVPRSKPDNQLKTFVSAVLFKA; Peptide with targeting and/or antimicrobial activity) | G B | S. epidermidis; also recorded: B. subtilis; also recorded: E. coli; also recorded: P. aeruginosa; also recorded: C. albicans; also recorded: E. faecalis; also recorded: C. jeikeium; also recorded: C. jejuni | S. epidermidis (S) | – | – | – | – | E. coli (C) | MRSA (H)
24 | PF-362: peptide having multiple activities (chain 1 NIERILKEKVWMIRCVE; chain 2 NIERILKEKVWMIRCVE; Peptide with targeting and/or antimicrobial activity) | G B | S. epidermidis; also recorded: E. coli; also recorded: P. aeruginosa; also recorded: C. albicans; also recorded: E. faecalis; also recorded: C. jejuni | – | – | – | – | – | E. coli (C) | MRSA (C)
